Key:
Type in all cases: cell-based, Plasmodium falciparum
P. falciparum C235 = assay: Malaria SYBR Green Fluorescence Assay, C235 strain; settings: for C235: SYBR Green Assay
P. falciparum W2 = assay: Malaria SYBR Green Fluorescence Assay, W2 strain; settings: for W2: SYBR Green Assay
P. falciparum D6 = assay: Malaria SYBR Green Fluorescence Assay, D6 strain; settings: for D6: SYBR Green Assay

CC(C)N1CCC(CNc2nc(-c3ccc(C(C)(C)C)cc3)nc(C(Cl)(Cl)Cl)n2)CC1 [Cmpd 488]
C235 (SYBR Green Assay IC50) (P. falciparum C235): 0.02 µg/mL
W2 (SYBR Green Assay IC50) (P. falciparum W2): 0.016 µg/mL
D6 (SYBR Green Assay IC50) (P. falciparum D6): 0.027 µg/mL

ClC(Cl)(Cl)c1nc(NCCCN2CCCC2)nc(-c2ccccc2)n1 [Cmpd 406]
C235 (SYBR Green Assay IC50) (P. falciparum C235): 0.089 µg/mL
W2 (SYBR Green Assay IC50) (P. falciparum W2): 0.035 µg/mL
D6 (SYBR Green Assay IC50) (P. falciparum D6): 0.077 µg/mL

COC1═C(OC)C═C(C═C1)C1═NC(NC2CCN(CC(C)C)CC2)═NC(═N1)C(Cl)(Cl)Cl [Compound 702]
C235 (P. falciparum C235): 480 ng/mL
W2 (P. falciparum W2): 179 ng/mL
D6 (P. falciparum D6): 435 ng/mL

Cc1ccc(-c2nc(N3CCCN(CCO)CC3)nc(C(Cl)(Cl)Cl)n2)cc1 [Cmpd 453]
C235 (SYBR Green Assay IC50) (P. falciparum C235): 0.112 µg/mL
W2 (SYBR Green Assay IC50) (P. falciparum W2): 0.043 µg/mL
D6 (SYBR Green Assay IC50) (P. falciparum D6): 0.173 µg/mL

OCCN1CCN(c2nc(-c3ccc(Cl)c(Cl)c3)nc(C(Cl)(Cl)Cl)n2)CC1 [Cmpd 304]
C235 (P. falciparum C235): 201 ng/mL
W2 (P. falciparum W2): 41 ng/mL
D6 (P. falciparum D6): 80 ng/mL

COc1cc(OC)cc(-c2nc(N3CCCNCC3)nc(C(Cl)(Cl)Cl)n2)c1 [Cmpd 525]
C235 (SYBR Green Assay IC50) (P. falciparum C235): 0.041 µg/mL
W2 (SYBR Green Assay IC50) (P. falciparum W2): 0.033 µg/mL
D6 (SYBR Green Assay IC50) (P. falciparum D6): 0.043 µg/mL

NC1(CNc2nc(-c3ccc(Cl)cc3)nc(C(Cl)(Cl)Cl)n2)CC1 [Compound 678, NC1(CNC2═NC(═NC(═N2)C2═CC═C(Cl)C═C2)C(Cl)(Cl)Cl)CC1]
C235 (P. falciparum C235): 20 ng/mL
W2 (P. falciparum W2): 12 ng/mL
D6 (P. falciparum D6): 11 ng/mL

OCCN1CCCN(c2nc(-c3ccc(Cl)c(Cl)c3)nc(C(Cl)(Cl)Cl)n2)CC1 [Cmpd 454]
C235 (SYBR Green Assay IC50) (P. falciparum C235): 0.118 µg/mL
W2 (SYBR Green Assay IC50) (P. falciparum W2): 0.064 µg/mL
D6 (SYBR Green Assay IC50) (P. falciparum D6): 0.252 µg/mL

COc1ccc(-c2nc(NCCN3CCCC3)nc(C(Cl)(Cl)Cl)n2)c2ccccc12 [Cmpd 278]
C235 (P. falciparum C235): 48 ng/mL
W2 (P. falciparum W2): 17 ng/mL
D6 (P. falciparum D6): 35 ng/mL

COc1ccc(-c2nc(NCC3CCN(C)CC3)nc(C(Cl)(Cl)Cl)n2)cc1OC [Cmpd 520]
C235 (SYBR Green Assay IC50) (P. falciparum C235): 0.045 µg/mL
W2 (SYBR Green Assay IC50) (P. falciparum W2): 0.019 µg/mL
D6 (SYBR Green Assay IC50) (P. falciparum D6): 0.082 µg/mL

ClC(Cl)(Cl)c1nc(-c2ccccc2)nc(N2CCCNCC2)n1 [Cmpd 408]
C235 (SYBR Green Assay IC50) (P. falciparum C235): 0.189 µg/mL
W2 (SYBR Green Assay IC50) (P. falciparum W2): 0.084 µg/mL
D6 (SYBR Green Assay IC50) (P. falciparum D6): 0.19 µg/mL

ClC(Cl)(Cl)c1nc(Nc2ccncc2)nc(-c2ccc(N3CCCC3)cc2)n1 [Compound 744, ClC(Cl)(Cl)C1═NC(NC2═CC═NC═C2)═NC(═N1)C1═CC═C(C═C1)N1CCCC1]
C235 (P. falciparum C235): 290 ng/mL
W2 (P. falciparum W2): 188 ng/mL
D6 (P. falciparum D6): 190 ng/mL

CCN(CC)CCNc1nc(-c2ccccc2-c2ccc(C)cc2)nc(C(Cl)(Cl)Cl)n1 [Cmpd 254]
C235 (P. falciparum C235): 462 ng/mL
W2 (P. falciparum W2): 492 ng/mL
D6 (P. falciparum D6): 632 ng/mL

COc1cc(OC)cc(-c2nc(NCC3CCN(C(C)C)CC3)nc(C(Cl)(Cl)Cl)n2)c1 [Cmpd 502]
C235 (SYBR Green Assay IC50) (P. falciparum C235): 0.052 µg/mL
W2 (SYBR Green Assay IC50) (P. falciparum W2): 0.028 µg/mL
D6 (SYBR Green Assay IC50) (P. falciparum D6): 0.127 µg/mL

Cc1ccc(-c2nc(NCC3(N)CC3)nc(C(Cl)(Cl)Cl)n2)cc1 [Compound 681, CC1═CC═C(C═C1)C1═NC(NCC2(N)CC2)═NC(═N1)C(Cl)(Cl)Cl]
C235 (P. falciparum C235): 750 ng/mL
W2 (P. falciparum W2): 328 ng/mL
D6 (P. falciparum D6): 593 ng/mL

Clc1ccc(-c2nc(NCc3ccccn3)nc(C(Cl)(Cl)Cl)n2)cc1 [Cmpd 141]
C235 (P. falciparum C235): 652 ng/mL
W2 (P. falciparum W2): 237 ng/mL
D6 (P. falciparum D6): 556 ng/mL

FC(F)(F)OC1═CC═C(NC2═NC(═NC(NCCCN3CCCC3)═N2)C(Cl)(Cl)Cl)C═C1 [Compound 657]
C235 (P. falciparum C235): 731 ng/mL
W2 (P. falciparum W2): 390 ng/mL
D6 (P. falciparum D6): 535 ng/mL

OCCN1CCCN(c2nc(-c3cccc(C(F)(F)F)c3)nc(C(Cl)(Cl)Cl)n2)CC1 [Cmpd 456]
C235 (SYBR Green Assay IC50) (P. falciparum C235): 0.136 µg/mL
W2 (SYBR Green Assay IC50) (P. falciparum W2): 0.091 µg/mL
D6 (SYBR Green Assay IC50) (P. falciparum D6): 0.207 µg/mL
